Measurements reported in patent US7211599B2, “Use of etodolac to treat hyperplasia” (The Regents of the University of California, priority 2002, dated 2007).
Where “and” joins values, the source holds several entries; their conditions need not be identical. Equal values may be shown once. Marks after values point to notes of the source that are not given here.

Key:
[1] = test system: transgenic adenocarcinoma mouse prostate (TRAMP) mouse; assay: TRAMP animal model: average weight of dissected prostate lobes; assay type: in vivo
Experimental: (§1) The transgenic adenocarcinoma mouse prostate (TRAMP) mouse, was used to evaluate the effect of R-etodolac on prostate cancer progression. The etodolac was compounded into the diet at 312 ppm (low dose) and 1250 ppm (high dose) and the animals were treated for 18 weeks. At necoscopy, the urogenital system was removed and weighed. The prostate lobes, seminal vesicles, lungs, liver, and periaortic lymph nodes were preserved and sectioned for histological evaluation and graded on a 1-6 scale for degree of hyperplasia/neoplasia/carcinoma.

[2] = test system: rats with adjuvant polyarthritis; conditions: Demerson et al. 1983; cited from earlier work
[3] = test system: transgenic adenocarcinoma mouse prostate (TRAMP) mouse; assay: TRAMP animal model: histopathological evaluation of the prostate (grade 1-6); assay type: in vivo; set-up: key to Average mouse Staging / Overall Mean (staging of group) / Histopathological grade, Lateral prostate: histological grade on 1-6 scale of hyperplasia/neoplasia/carcinoma; conditions: for Overall Mean (staging of group): TRAMP mice; for Average mouse Staging: mean of lobe grades
Experimental: as §1

[4] = cited from earlier work
[5] = cited from earlier work; remark: listed apart in the source
[6] = test system: hyperplastic cells; assay: Activity against hyperplastic cells; conditions: compared with S(+) enantiomer
Text: The pharmacokinetics of etodolac have been extensively reviewed by D. R. Brocks et al., Clin. Pharmacokinet., 26, 259 (1994). Etodolac is marketed as the racemate.

[7] = test system: prostaglandin synthetase; conditions: Demerson et al. 1983; cited from earlier work
[8] = TRAMP mice, High Dose (1250 ppm in diet), 18 weeks, average ± standard deviation
[9] = TRAMP mice, Low Dose (312 ppm in diet), 18 weeks, average ± standard deviation
[10] = TRAMP mice treated with R-etodolac
[11] = after a 200 mg dose in six elderly patients

Compound: CCc1cccc2c3c([nH]c12)[C@@](CC)(CC(=O)O)OCC3 [R-etodolac]
- Average weigh (g) Anterior Prostate [1, 8]: 0.076 ± 0.012 g
- Average weigh (g) Dorsal Prostate [1, 8]: 0.053 ± 0.013 g
- Average weigh (g) Lateral Prostate [1, 8]: 0.016 ± 0.003 g
- Average weigh (g) Ventral prostate [1, 8]: 0.014 ± 0.001 g
- Total Weigh average [1, 8]: 0.160 ± 0.022 g
- Average weigh (g) Anterior Prostate [1, 9]: 0.062 ± 0.033 g
- Average weigh (g) Dorsal Prostate [1, 9]: 0.062 ± 0.027 g
- Average weigh (g) Lateral Prostate [1, 9]: 0.015 ± 0.001 g
- Average weigh (g) Ventral prostate [1, 9]: 0.024 ± 0.017 g
- Overall size of the prostates ([1]; TRAMP mice, highest dose): reduction of the overall size of the prostates
- Overall size of the prostates ([1]; treated mice compared to untreated mice): reduces the overall size of the prostates
- Anti-inflammatory activity (reduction in paw volume) [2]: No anti-inflammatory activity was discernible
- Effects in any other tissues [3, 10]: No other effects in any other tissues were observed
- Progression of the disease (histological analysis) [3, 10]: maintaining the animals in a pre-cancerous stage
- Overall Mean (staging of group) ([3]; High dose group (1250 ppm in diet), 18 weeks, statistically significant from control group, p < 0.005): 3.3*
- Overall Mean (staging of group) ([3]; Low dose group (312 ppm in diet), 18 weeks): 4.3
- Average mouse Staging ([3]; individual TRAMP mice, High dose (1250 ppm in diet), 18 weeks): 3.8 and 3.3 (3×) and 3.5 and 3.0
- Histopathological grade, Lateral prostate ([3]; individual TRAMP mice, Low dose (312 ppm in diet), 18 weeks, grade 1-6): 3.5
- Average mouse Staging ([3]; individual TRAMP mice, Low dose (312 ppm in diet), 18 weeks): 4.0 (2×) and 5.5 and 3.6 and 4.5 and 6.0
- Conversion to the S(+) enantiomer in vivo [4]: not converted significantly
- Maximum plasma concentration [5, 11]: about 33 μM
- Plasma concentrations of R-enantiomer relative to S-enantiomer ([5]; in plasma after administration of RS-etodolac, Brocks et al. 1994): about 10 fold
- Activity against hyperplastic cells [6]: potent activity against hyperplastic cells that is at least equivalent to that of the S(+) enantiomer

Compound: CCc1cccc2c3c([nH]c12)[C@](CC)(CC(=O)O)OCC3 (single isomer, unassigned) [S(+)-enantiomer of etodolac, reference compound]
- Anti-inflammatory activity (reduction in paw volume) [2]: almost all of the anti-inflammatory activity of the racemate
- Maximum concentration relative to R-enantiomer [5, 11]: 5 fold lower
- Prostaglandin synthetase inhibitory activity [7]: almost all

Compound: CCc1cccc2c3c([nH]c12)C(CC)(CC(=O)O)OCC3 (racemic) [etodolac, 1,8-diethyl-1,3,4,9-tetrahydro[3,4-6]indole-1-acetic acid]
- Elimination half-life ([5]; racemic mixture): 6 to 8 h
